Legend:
[1] = Cmax in cancer patient at 120 mg for 60 mins treated 1/1 cycle/day; format: ADME, organism-based; set-up: dose 120 mg, dosed compound name LY2090314; settings: human, in vivo
Canis familiaris [2] = assay: Volume of distribution at steady state in beagle dog assessed as total radioactivity at 5 mg/kg, iv administered for 30 mins; format: ADME, organism-based, Canis lupus familiaris; set-up: dose 5 mg/kg, dosed compound name [14C]LY2090314, route intravenous; settings: in vivo, 0.5 h
[3] = Cmax in cancer patient at 20 mg for 60 mins treated 1/1 cycle/day; format: ADME, organism-based; set-up: dose 20 mg, dosed compound name LY2090314; settings: human, in vivo
[4] = Drug uptake in beagle […] blood at 5 mg/kg, iv administered for 30 mins; format: ADME, organism-based, Canis lupus familiaris; set-up: dose 5 mg/kg, dosed compound name [14C]LY2090314, route intravenous; settings: in vivo, 0.5 h
[5] = AUC (0 to infinity) in cancer patient at 10 mg for 60 mins treated 2/1 cycle/day; format: ADME, organism-based; set-up: dose 10 mg, time infinity, dosed compound name LY2090314; settings: human, plasma
[6] = Half life in cancer patient at 120 mg for 60 mins treated 1/1 cycle/day; format: ADME, organism-based; set-up: dosed compound name LY2090314; settings: human, in vivo
[7] = Tmax in cancer patient at 10 mg for 60 mins treated 2/1 cycle/day; format: ADME, organism-based; set-up: dosed compound name LY2090314; settings: human, in vivo
[8] = Cmax in cancer patient at 80 mg for 60 mins treated 1/8 cycle/day; format: ADME, organism-based; set-up: dose 80 mg, dosed compound name LY2090314; settings: human, in vivo
[9] = Tmax in cancer patient at 20 mg for 60 mins treated 2/1 cycle/day; format: ADME, organism-based; set-up: dosed compound name LY2090314; settings: human, in vivo
[10] = Drug recovery in beagle dog feces at 5 mg/kg, iv administered for 30 mins during 0 to 24 hrs time interval by radio analysis; format: ADME, organism-based, Canis lupus familiaris; set-up: dose 5 mg/kg, dosed compound name [14C]LY2090314, route intravenous; settings: in vivo
[11] = Clearance in cancer patient at 60 mg for 60 mins treated 1/1 cycle/day; format: ADME, organism-based; set-up: dosed compound name LY2090314; settings: human, in vivo
Plasma [12] = assay: Plasma concentration in Sprague-Dawley rat at 5 mg/kg, iv administered for 30 mins; format: ADME, organism-based; set-up: dose 5 mg/kg, dosed compound name [14C]LY2090314, route intravenous; settings: in vivo, 0.5 h
[13] = Tmax in cancer patient at 40 mg for 60 mins treated 1/1 cycle/day; format: ADME, organism-based; set-up: dosed compound name LY2090314; settings: human, in vivo
[14] = Cmax in cancer patient at 10 mg for 60 mins treated 2/1 cycle/day; format: ADME, organism-based; set-up: dose 10 mg, dosed compound name LY2090314; settings: human, in vivo
[15] = Half life in cancer patient at 80 mg for 60 mins treated 1/1 cycle/day; format: ADME, organism-based; set-up: dosed compound name LY2090314; settings: human, in vivo
[16] = Volume of distribution at steady state in cancer patient at 10 mg for 60 mins treated 2/1 cycle/day; format: ADME, organism-based; set-up: dosed compound name LY2090314; settings: human, in vivo, read-out: Vdss
[17] = Drug metabolism in Mdr1a knockout Sprague-Dawley rat bile at 5 mg/kg, iv administered for 30 mins; format: ADME, organism-based; set-up: dose 5 mg/kg, dosed compound name LY2090314, route intravenous; settings: in vivo, 0.5 h
[18] = Volume of distribution at steady state in cancer patient at 60 mg for 60 mins treated 1/8 cycle/day; format: ADME, organism-based; set-up: dosed compound name LY2090314; settings: human, in vivo, read-out: Vdss
[19] = Drug metabolism in Mrp2 knockout Sprague-Dawley rat bile at 5 mg/kg, iv administered for 30 mins; format: ADME, organism-based; set-up: dose 5 mg/kg, dosed compound name LY2090314, route intravenous; settings: in vivo, 0.5 h
[20] = Clearance in cancer patient at 20 mg for 60 mins treated 1/1 cycle/day; format: ADME, organism-based; set-up: dosed compound name LY2090314; settings: human, in vivo
Rattus norvegicus [21] = assay: AUC (0 to infinity) in Sprague-Dawley rat assessed as total radioactivity at 5 mg/kg, iv administered for 30 mins; format: ADME, organism-based, Plasma; set-up: dose 5 mg/kg, dosed compound name [14C]LY2090314, route intravenous, time infinity; settings: in vivo, 0.5 h
[22] = Tmax in cancer patient at 80 mg for 60 mins treated 1/8 cycle/day; format: ADME, organism-based; set-up: dosed compound name LY2090314; settings: human, in vivo
Rattus norvegicus [23] = assay: Total drug recovery in Sprague-Dawley rat at 5 mg/kg, iv administered for 30 mins during 0 to 24 hrs time interval by radio analysis; format: ADME, organism-based; set-up: dose 5 mg/kg, dosed compound name [14C]LY2090314, route intravenous; settings: in vivo
[24] = Drug recovery in bile duct-cannulated Sprague-Dawley rat assessed as radioactivity in bile during 0 to 24 hrs at 5 mg/kg, iv administered for 30 mins relative to dosed radioactivity; format: ADME, organism-based; set-up: dose 5 mg/kg, dosed compound name [14C]LY2090314, route intravenous; settings: in vivo
[25] = AUC (0 to infinity) in Sprague-Dawley rat at 5 mg/kg, iv administered for 30 mins; format: ADME, organism-based; set-up: time infinity, dose 5 mg/kg, dosed compound name [14C]LY2090314, route intravenous; settings: plasma
[26] = Half life in cancer patient at 40 mg for 60 mins treated 1/1 cycle/day; format: ADME, organism-based; set-up: dosed compound name LY2090314; settings: human, in vivo
[27] = Clearance in cancer patient kidney at 80 to 120 mg for 60 mins; format: ADME, organism-based; set-up: dosed compound name LY2090314; settings: human, in vivo
[28] = Cmax in cancer patient at 60 mg for 60 mins treated 1/8 cycle/day; format: ADME, organism-based; set-up: dose 60 mg, dosed compound name LY2090314; settings: human, in vivo
[29] = Volume of distribution at steady state in cancer patient at 80 mg for 60 mins treated 1/1 cycle/day; format: ADME, organism-based; set-up: dosed compound name LY2090314; settings: human, in vivo, read-out: Vdss
Canis familiaris [30] = assay: Total drug recovery in beagle dog at 5 mg/kg, iv administered for 30 mins during 0 to 168 hrs time interval by radio analysis; format: ADME, organism-based, Canis lupus familiaris; set-up: dose 5 mg/kg, dosed compound name [14C]LY2090314, route intravenous; settings: in vivo
Canis familiaris [31] = assay: Elimination half life in beagle dog assessed as total radioactivity at 5 mg/kg, iv administered for 30 mins; format: ADME, organism-based, Canis lupus familiaris; set-up: dose 5 mg/kg, dosed compound name [14C]LY2090314, route intravenous; settings: in vivo, 0.5 h
[32] = Half life in cancer patient at 20 mg for 60 mins treated 1/1 cycle/day; format: ADME, organism-based; set-up: dosed compound name LY2090314; settings: human, in vivo
Rattus norvegicus [33] = assay: Total drug recovery in bile duct-cannulated Sprague-Dawley rat at 5 mg/kg, iv administered for 30 mins during 0 to 168 hrs time interval by radio analysis; format: ADME, organism-based; set-up: dose 5 mg/kg, dosed compound name [14C]LY2090314, route intravenous; settings: in vivo
[34] = Drug recovery in Sprague-Dawley rat feces at 5 mg/kg, iv administered for 30 mins during 48 hrs time interval by radio analysis; format: ADME, organism-based; set-up: dose 5 mg/kg, dosed compound name [14C]LY2090314, route intravenous; settings: in vivo
[35] = Drug recovery in beagle dog feces at 5 mg/kg, iv administered for 30 mins during 0 to 168 hrs time interval by radio analysis; format: ADME, organism-based, Canis lupus familiaris; set-up: dose 5 mg/kg, dosed compound name [14C]LY2090314, route intravenous; settings: in vivo
[36] = Clearance in cancer patient at 40 mg for 60 mins treated 1/8 cycle/day; format: ADME, organism-based; set-up: dosed compound name LY2090314; settings: human, in vivo
[37] = Drug recovery in bile duct-intact Sprague-Dawley rat assessed as radioactivity in bile during 0 to 24 hrs at 5 mg/kg, iv administered for 30 mins relative to dosed radioactivity; format: ADME, organism-based; set-up: dose 5 mg/kg, dosed compound name [14C]LY2090314, route intravenous; settings: in vivo
[38] = Cmax in cancer patient at 40 mg for 60 mins treated 1/8 cycle/day; format: ADME, organism-based; set-up: dose 40 mg, dosed compound name LY2090314; settings: human, in vivo
[39] = Clearance in cancer patient at 10 mg for 60 mins treated 2/1 cycle/day; format: ADME, organism-based; set-up: dosed compound name LY2090314; settings: human, in vivo
[40] = Clearance in cancer patient at 20 mg for 60 mins treated 2/1 cycle/day; format: ADME, organism-based; set-up: dosed compound name LY2090314; settings: human, in vivo
[41] = Volume of distribution at steady state in Sprague-Dawley rat at 5 mg/kg, iv administered for 30 mins; format: ADME, organism-based; set-up: dose 5 mg/kg, dosed compound name [14C]LY2090314, route intravenous; settings: in vivo, read-out: Vdss
[42] = Half life in cancer patient at 20 mg for 60 mins treated 2/1 cycle/day; format: ADME, organism-based; set-up: dosed compound name LY2090314; settings: human, in vivo
Plasma [43] = assay: Drug metabolism in Bcrp knockout Sprague-Dawley rat plasma at 5 mg/kg, iv administered for 30 mins; format: ADME, organism-based; set-up: dose 5 mg/kg, dosed compound name LY2090314, route intravenous; settings: in vivo, 0.5 h
[44] = Clearance in cancer patient at 120 mg for 60 mins treated 1/1 cycle/day; format: ADME, organism-based; set-up: dosed compound name LY2090314; settings: human, in vivo
Rattus norvegicus [45] = assay: Volume of distribution at steady state in Sprague-Dawley rat assessed as total radioactivity at 5 mg/kg, iv administered for 30 mins; format: ADME, organism-based; set-up: dose 5 mg/kg, dosed compound name [14C]LY2090314, route intravenous; settings: in vivo, 0.5 h
[46] = Tmax in cancer patient at 120 mg for 60 mins treated 1/8 cycle/day; format: ADME, organism-based; set-up: dosed compound name LY2090314; settings: human, in vivo
Rattus norvegicus [47] = assay: Clearance in Sprague-Dawley rat assessed as total radioactivity at 5 mg/kg, iv administered for 30 mins; format: ADME, organism-based; set-up: dose 5 mg/kg, dosed compound name [14C]LY2090314, route intravenous; settings: in vivo, 0.5 h

Cmax [1]: 1700 ng/mL | Vdss (Canis familiaris [2]): 9.84 L/kg | Cmax [3]: 246 ng/mL | Compound recovery [4]: 25.5% | AUC(0-inf) [5]: 192 ng·h/mL | half-life [6]: 2.97 h | Tmax [7]: 0.92 h | Cmax [8]: 1150 ng/mL | Tmax [9]: 0.75 h | Radiolabel recovery [10]: 39.8% | clearance [11]: 617 mL/min | Compound recovery (Plasma [12]): 70.4% | Tmax [13]: 0.98 h | Cmax [14]: 106 ng/mL | half-life [15]: 2.57 h | Vd [16]: 101 L | Drug metabolism [17]: metabolite_detected | Vd [18]: 67.5 L | Drug metabolism [19]: metabolite_detected | clearance [20]: 782 mL/min | AUC (Rattus norvegicus [21]): 1790 ng·h/mL | Tmax [22]: 0.98 h | Radiolabel recovery (Rattus norvegicus [23]): 92.6% | Radiolabel recovery [24]: 91.8% | AUC(0-inf) [25]: 1260 ng·h/mL | half-life [26]: 3.15 h | CL renal at 1 h [27]: 14.2 mL/min | Cmax [28]: 1040 ng/mL | Vd [29]: 86.3 L | Radiolabel recovery (Canis familiaris [30]): 93% | beta t1/2 (Canis familiaris [31]): 73.6 h | half-life [32]: 1.84 h | Radiolabel recovery (Rattus norvegicus [33]): 94.9% | Radiolabel recovery [34]: 65.8% | Radiolabel recovery [35]: 69.2% | clearance [36]: 710 mL/min | Radiolabel recovery [37]: 1.8% | Cmax [38]: 657 ng/mL | clearance [39]: 870 mL/min | clearance [40]: 825 mL/min | Vd [41]: 1.19 L/kg | half-life [42]: 1.92 h | Drug metabolism (Plasma [43]): metabolite_not_detected | clearance [44]: 605 mL/min | Vdss (Rattus norvegicus [45]): 4.489 L/kg | Tmax [46]: 0.5 h | CL (Rattus norvegicus [47]): 40.5 mL/min/kg
Structure (SMILES): O=C1NC(=O)C(c2cnc3ccccn23)=C1c1cn2c3c(cc(F)cc13)CN(C(=O)N1CCCCC1)CC2 [LY-2090314]
